From patent US20030119862A1, “Pharmaceutical combination” (priority 2001, published 2003)
Read-outs that look alike come from different tables or passages of the source.

System: isolated human neutrophils
Test: Inhibition of fMLP-induced elastase release from isolated human neutrophils
Assay type: cell-based
Details: read-out: Inhibition of elastase release (IC50)
Protocol: Test data—Inhibition of Elastase Release from Isolated Human Neutrophils
The dextran/blood was mixed gently by inversion and left to stand at room temperature for 45 minutes to allow erythrocyte sedimentation. Aliquots of 16 ml from the leukocyte-rich supernatant were overlaid on 10 ml Ficoll-Hypaque cushions in 50 ml polypropylene centrifuge tubes and the tubes centrifuged at 400 g for 35 mins at 21° C. The plasma, mononuclear cell layer and Ficoll were removed leaving the granulocyte-rich pellet. The pellets were initially re-suspended in 10 ml ice-cold distilled water for 45 seconds to lyse contaminating red blood cells, followed by the addition of 10 ml of ice-cold double concentrated phosphate buffered saline (PBS) solution to each tube to restore osmolarity. The suspensions were re-centrifuged at 200 g for 10 min at 4° C. to generate neutrophil pellets. The supernatants were removed and the pellets gently resuspended in a total volume of 10 ml ice-cold HBSS using a Pasteur pipette. A differential white cell count was performed on the resulting neutrophil suspension using a Beckman Coulter Ac. T5 haematology analyser and the cells stored on ice until assay. Immediately prior to assay, aliquots of the neutrophil suspension were removed and diluted to a count of 4×10^6 neutrophils/ml ice-cold HBSS containing 2U/ml adenosine deaminase.
Inhibition of fMLP induced elastase release was performed using a 160 μl assay volume in 96-well polystyrene microtiter plates. Elastase release was assayed by measuring the rate of cleavage of the synthetic substrate MeOSuc-Ala-Ala-Pro-Val-pNA. […] Assay plates were incubated at 37° C. for 10 minutes before addition of 8 μl of 2 μM fMLP (in HBSS) and measurement of rate of substrate cleavage was measured at λ=405 nm for 3 minutes at 37° C. Basal elastase, release was determined by the addition of 8 μl HBSS in place of fMLP. […] In the case of the combination experiments, 1000 nM of Ariflo (trade mark) (A) (also known as cilomilast) or 9-cyclopentyl-5,6-dihydro-7-ethyl-3-(2-thienyl)-9H-pyrazolo[3,4-c]-1,2,4-triazolo[4,3-α]pyridine and 9-cyclopentyl-5,6-dihydro-7-ethyl-3-(tert-butyl)-9H-pyrazolo[3,4-c]-1,2,4-triazolo[4,3-c]pyridine (C) were added to the assay and a concentration response curve was then generated for formoterol (F) or salmeterol (S).

[1] = Neutrophil, single agent, fMLP-induced elastase release, isolated human neutrophils

Row | Compound | IC50 [1] | other results
1 | OCc1cc(C(O)CNCCCCCCOCCCCc2ccccc2)ccc1O (stereo not shown) [S, salmeterol] | > 1000 nM | 
2 | COc1ccc(CC(C)NCC(O)c2ccc(O)c(NC=O)c2)cc1 (stereo not shown) [F, N-[2-hydroxy-5-(1-hydroxy-2-((2-(4-methoxyphenyl)-1-methylethyl)amino)ethyl)phenyl]formamide] |  | IC50 (Homo sapiens, Neutrophil): > 1000 nM
3 | CCc1nn(C2CCCC2)c2c1CCn1c(-c3cccs3)nnc1-2 [C, 9-cyclopentyl-5,6-dihydro-7-ethyl-3-(2-thienyl)-9H-pyrazolo[3,4-c]-1,2,4-triazolo[4,3-α]pyridine and 9-cyclopentyl-5,6-dihydro-7-ethyl-3-(tert-butyl)-9H-pyrazolo[3,4-c]-1,2,4-triazolo[4,3-c]pyridine] |  | IC50 (single agent, fMLP-induced elastase release, isolated human neutrophils): > 1000 nM
4 | COc1ccc([C@]2(C#N)CC[C@@H](C(=O)O)CC2)cc1OC1CCCC1 [A, cilomilast] | > 1000 nM | 
